Laboratory results: patent US10047078B2, “Aminothiazole compounds” (National Health Research Institutes, priority 2016, dated 2018)

Columns and labels:
[1] = target: ABL1 (Homo sapiens, UniProt P00519); assay: SelectScreen biochemical kinase profiling; format: binding; details: 100 nM, read-out: Inhibition (% of control) at 100 nM
Experimental: (§1) Kinase inhibition data were obtained from SelectScreen® Biochemical Kinase Profiling Service.
(§2) More specifically, test compounds were screened in 160 nL of a 1% DMSO solution in the well of a 384-well plate; kinase/antibody mixtures (8 μL) were diluted to a 2-fold working concentration in an appropriate kinase buffer (3.84 μL) and a 4-fold AlexaFluor® labeled tracer (4 μL) was prepared in the kinase buffer; incubation of test solutions was conducted at room is temperature for 60 minutes; and readout on a fluorescence plate reader was recorded and analyzed.

[2] = target: ABL1 T315I (Homo sapiens, UniProt P00519, T315I); assay: SelectScreen biochemical kinase profiling; format: binding; details: 100 nM, read-out: Inhibition (% of control) at 100 nM
Experimental: as §1, §2

[3] = target: KIT (Homo sapiens, UniProt P10721); assay: SelectScreen biochemical kinase profiling; format: binding
Sequence of KIT (P10721 26-976): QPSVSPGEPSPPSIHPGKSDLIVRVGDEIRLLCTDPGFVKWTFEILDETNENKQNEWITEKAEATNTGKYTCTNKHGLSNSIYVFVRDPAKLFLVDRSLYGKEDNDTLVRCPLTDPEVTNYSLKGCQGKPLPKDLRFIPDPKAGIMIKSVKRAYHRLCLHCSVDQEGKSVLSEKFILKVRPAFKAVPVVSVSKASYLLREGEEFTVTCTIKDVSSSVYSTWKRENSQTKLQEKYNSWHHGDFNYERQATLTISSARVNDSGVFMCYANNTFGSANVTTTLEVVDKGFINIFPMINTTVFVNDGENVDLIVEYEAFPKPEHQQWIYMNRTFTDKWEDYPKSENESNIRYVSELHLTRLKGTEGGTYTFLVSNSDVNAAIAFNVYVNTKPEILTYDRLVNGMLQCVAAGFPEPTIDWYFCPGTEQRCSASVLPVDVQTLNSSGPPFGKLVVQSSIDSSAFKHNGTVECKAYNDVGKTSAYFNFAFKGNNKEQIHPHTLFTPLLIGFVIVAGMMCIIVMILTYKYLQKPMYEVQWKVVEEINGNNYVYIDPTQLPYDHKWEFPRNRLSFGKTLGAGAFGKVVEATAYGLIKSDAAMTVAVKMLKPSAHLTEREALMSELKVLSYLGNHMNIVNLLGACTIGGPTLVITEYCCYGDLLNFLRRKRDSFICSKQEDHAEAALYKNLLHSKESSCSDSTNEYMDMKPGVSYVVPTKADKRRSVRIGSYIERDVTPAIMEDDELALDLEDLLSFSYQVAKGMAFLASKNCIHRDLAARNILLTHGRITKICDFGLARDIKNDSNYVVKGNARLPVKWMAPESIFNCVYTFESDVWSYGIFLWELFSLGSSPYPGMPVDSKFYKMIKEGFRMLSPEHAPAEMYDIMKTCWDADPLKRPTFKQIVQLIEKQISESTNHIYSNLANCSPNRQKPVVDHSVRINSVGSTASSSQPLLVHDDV
Experimental: as §1, §2

[4] = target: PDGFR A (Homo sapiens, UniProt P16234); assay: SelectScreen biochemical kinase profiling; format: binding
Sequence of PDGFR A (P16234 24-1089): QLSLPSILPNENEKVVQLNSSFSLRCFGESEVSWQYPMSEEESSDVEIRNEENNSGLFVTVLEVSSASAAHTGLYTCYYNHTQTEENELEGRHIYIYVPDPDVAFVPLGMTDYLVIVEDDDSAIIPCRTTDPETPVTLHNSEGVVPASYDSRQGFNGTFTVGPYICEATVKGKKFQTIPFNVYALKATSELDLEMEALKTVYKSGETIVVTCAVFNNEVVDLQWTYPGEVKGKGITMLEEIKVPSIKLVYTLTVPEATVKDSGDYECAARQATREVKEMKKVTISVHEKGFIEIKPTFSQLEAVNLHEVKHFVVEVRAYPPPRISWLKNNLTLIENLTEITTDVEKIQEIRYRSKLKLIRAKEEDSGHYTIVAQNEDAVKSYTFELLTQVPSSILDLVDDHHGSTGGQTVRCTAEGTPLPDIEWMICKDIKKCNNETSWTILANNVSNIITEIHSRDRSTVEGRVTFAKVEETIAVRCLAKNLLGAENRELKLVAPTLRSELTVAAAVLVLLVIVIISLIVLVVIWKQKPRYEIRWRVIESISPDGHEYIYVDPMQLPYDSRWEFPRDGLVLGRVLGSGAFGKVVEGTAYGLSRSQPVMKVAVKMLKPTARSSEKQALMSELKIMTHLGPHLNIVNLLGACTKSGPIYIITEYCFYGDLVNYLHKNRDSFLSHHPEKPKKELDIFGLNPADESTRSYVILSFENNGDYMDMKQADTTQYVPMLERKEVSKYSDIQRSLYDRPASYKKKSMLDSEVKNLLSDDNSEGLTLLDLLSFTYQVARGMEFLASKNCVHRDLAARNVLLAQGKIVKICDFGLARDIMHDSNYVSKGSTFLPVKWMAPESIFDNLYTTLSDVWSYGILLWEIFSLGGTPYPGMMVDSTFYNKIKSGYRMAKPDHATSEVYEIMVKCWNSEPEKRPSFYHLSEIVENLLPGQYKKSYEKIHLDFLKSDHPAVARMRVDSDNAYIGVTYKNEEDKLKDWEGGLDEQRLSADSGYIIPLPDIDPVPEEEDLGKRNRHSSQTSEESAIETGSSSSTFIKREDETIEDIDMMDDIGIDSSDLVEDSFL
Experimental: as §1, §2

[5] = target: PDGFR B (Homo sapiens, UniProt P09619); assay: SelectScreen biochemical kinase profiling; format: binding
Sequence of PDGFR B (P09619 33-1106): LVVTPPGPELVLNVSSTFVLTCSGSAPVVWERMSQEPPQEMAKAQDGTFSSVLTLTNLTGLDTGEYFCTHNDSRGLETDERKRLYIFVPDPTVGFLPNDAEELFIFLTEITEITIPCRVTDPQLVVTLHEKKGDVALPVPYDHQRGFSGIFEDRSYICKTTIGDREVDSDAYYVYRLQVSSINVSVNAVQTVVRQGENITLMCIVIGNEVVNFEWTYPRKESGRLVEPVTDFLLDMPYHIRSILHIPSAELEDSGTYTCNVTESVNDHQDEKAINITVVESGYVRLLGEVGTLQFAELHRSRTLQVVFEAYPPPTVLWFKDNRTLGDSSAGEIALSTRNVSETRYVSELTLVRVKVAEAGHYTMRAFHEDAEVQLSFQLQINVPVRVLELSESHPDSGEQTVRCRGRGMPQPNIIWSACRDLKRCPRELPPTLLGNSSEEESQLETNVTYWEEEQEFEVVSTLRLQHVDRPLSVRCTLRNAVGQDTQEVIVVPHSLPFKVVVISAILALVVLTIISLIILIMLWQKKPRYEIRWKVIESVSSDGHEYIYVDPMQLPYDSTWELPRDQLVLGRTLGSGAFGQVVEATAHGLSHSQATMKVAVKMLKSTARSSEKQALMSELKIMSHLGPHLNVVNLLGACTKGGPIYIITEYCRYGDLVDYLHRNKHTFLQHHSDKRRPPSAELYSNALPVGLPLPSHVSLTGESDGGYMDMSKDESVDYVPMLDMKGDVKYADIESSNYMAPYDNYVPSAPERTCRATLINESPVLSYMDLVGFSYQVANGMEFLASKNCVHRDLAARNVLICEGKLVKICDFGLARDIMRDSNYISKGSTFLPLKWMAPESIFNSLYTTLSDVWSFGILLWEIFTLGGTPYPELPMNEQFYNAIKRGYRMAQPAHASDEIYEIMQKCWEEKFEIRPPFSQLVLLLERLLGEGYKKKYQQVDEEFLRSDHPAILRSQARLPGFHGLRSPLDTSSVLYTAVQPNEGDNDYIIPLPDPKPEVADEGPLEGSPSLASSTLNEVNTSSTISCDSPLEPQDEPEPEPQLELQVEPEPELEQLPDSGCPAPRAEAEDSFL
Experimental: as §1, §2

[6] = target: RET (Homo sapiens, UniProt P07949); assay: SelectScreen biochemical kinase profiling; format: binding; details: 100 nM, read-out: Inhibition (% of control) at 100 nM
Experimental: as §1, §2

[7] = target: SRC (Homo sapiens, UniProt P12931); assay: SelectScreen biochemical kinase profiling; format: binding
Sequence of SRC (P12931 whole entry): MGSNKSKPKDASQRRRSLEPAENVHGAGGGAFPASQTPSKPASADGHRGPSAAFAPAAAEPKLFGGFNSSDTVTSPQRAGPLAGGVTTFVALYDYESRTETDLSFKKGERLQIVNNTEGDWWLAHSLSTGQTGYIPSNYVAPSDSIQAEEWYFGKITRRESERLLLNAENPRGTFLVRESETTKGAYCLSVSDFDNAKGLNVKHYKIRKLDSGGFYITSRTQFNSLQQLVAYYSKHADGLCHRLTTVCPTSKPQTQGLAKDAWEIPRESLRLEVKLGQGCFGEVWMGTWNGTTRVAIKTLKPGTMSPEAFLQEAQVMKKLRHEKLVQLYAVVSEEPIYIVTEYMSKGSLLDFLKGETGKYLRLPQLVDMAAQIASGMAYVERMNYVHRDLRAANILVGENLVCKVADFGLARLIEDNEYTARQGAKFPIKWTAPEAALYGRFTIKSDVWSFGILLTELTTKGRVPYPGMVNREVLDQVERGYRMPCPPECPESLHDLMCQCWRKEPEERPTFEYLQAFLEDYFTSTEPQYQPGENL
Experimental: as §1, §2

[8] = target: VEGFR2 (Homo sapiens, UniProt P35968); assay: SelectScreen biochemical kinase profiling; format: binding
Sequence of VEGFR2 (P35968 20-1356): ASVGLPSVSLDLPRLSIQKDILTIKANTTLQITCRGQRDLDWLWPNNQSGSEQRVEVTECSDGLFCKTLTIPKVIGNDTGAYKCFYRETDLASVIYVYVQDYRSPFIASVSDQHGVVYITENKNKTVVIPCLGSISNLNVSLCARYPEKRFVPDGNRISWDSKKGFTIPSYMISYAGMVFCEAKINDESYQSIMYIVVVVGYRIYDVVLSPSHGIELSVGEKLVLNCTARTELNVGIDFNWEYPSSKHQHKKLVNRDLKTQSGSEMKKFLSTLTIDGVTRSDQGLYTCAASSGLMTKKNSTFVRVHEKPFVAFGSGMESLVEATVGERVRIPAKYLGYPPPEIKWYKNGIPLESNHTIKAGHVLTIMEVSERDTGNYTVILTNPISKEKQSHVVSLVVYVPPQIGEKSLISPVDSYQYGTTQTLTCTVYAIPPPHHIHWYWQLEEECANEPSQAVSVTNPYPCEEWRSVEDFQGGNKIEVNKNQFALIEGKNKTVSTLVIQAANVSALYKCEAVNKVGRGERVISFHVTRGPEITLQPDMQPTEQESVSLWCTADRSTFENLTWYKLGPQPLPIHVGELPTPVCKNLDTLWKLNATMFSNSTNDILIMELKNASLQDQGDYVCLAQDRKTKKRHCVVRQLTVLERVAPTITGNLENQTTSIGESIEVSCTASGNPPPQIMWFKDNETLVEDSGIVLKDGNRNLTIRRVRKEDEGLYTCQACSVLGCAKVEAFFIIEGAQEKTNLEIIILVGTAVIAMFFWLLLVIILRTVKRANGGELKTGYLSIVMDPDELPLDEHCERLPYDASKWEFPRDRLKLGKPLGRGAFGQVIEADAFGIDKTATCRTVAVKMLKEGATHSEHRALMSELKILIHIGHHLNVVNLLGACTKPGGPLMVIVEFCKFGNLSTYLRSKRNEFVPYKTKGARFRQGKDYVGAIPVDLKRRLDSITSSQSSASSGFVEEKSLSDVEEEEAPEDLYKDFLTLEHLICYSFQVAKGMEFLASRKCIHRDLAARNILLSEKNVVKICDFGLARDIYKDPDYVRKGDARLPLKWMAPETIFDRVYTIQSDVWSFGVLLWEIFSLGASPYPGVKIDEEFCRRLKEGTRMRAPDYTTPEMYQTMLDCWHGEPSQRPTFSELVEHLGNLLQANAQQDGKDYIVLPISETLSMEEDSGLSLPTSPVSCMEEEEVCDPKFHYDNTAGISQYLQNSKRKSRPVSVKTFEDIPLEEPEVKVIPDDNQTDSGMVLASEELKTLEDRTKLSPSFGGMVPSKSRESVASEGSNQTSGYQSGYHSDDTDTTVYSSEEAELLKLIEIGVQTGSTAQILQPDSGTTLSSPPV
Experimental: as §1, §2

[9] = tested on: 32D-ITD/D835F cells; assay: MTS cell viability, 32D cells expressing FLT3-ITD mutant; format: cell-based, Murine; details: 72-h incubation
Excerpt: (§3) The five leukemic 32D cell lines were purchased from American Type Culture Collection (ATCC, Manassas, Va., USA). Murine pro-B lymphocyte 32D cell lines were stably transfected with expression vectors that encoded human FLT3 containing an ITD mutation (32D-ITD cells), ITD and D835Y (32D-ITD/D835Y cells), ITD and D835V (32D-ITD/D835V cells), ITD and D835F (32D-ITD/D835F cells), and ITD and F691L (32D-ITD/F691L cells) mutations, which lead to constitutive activation of the FLT3 downstream signaling proteins. The cell viability was assessed with the MTS assay described in PLoS One, 2014, 9, e97116. 32D-ITD/D835Y, 32D-ITD/D835V, 32D-ITD/D835F, 32D-ITD/F691L, and 32D-ITD/F691I cells were seeded in 96-well plates at 1×10^4 cells/mL (100 μL per well) for 24-h incubation. Test compounds (at various concentrations in dimethyl sulfoxide (DMSO) were subsequently added to the culture medium for 72-h incubation. The cell viability was determined by the MTS assay (Promega, Madison, Wis., USA).

[10] = tested on: 32D-ITD/F691I cells; assay: as above; format: cell-based, Murine; details: Mus musculus, 32D, 72 h, 72-h incubation
Excerpt: as §3

[11] = tested on: 32D-ITD/F691L cells; assay: as above; format: cell-based, Murine; details: Mus musculus, 32D, 72 h, 72-h incubation
Excerpt: as §3

[12] = tested on: Colo205 xenografts; assay: Xenograft efficacy, Colo205 model; format: in vivo; details: Colo205 xenografts in nude mice; PO 50 mg/kg, 5 times a week for 2 weeks; 50 mg/kg
Experimental: (§4) Male nude mice (Nu-Fox1^nu) of 8 weeks old were purchased from BioLASCO (Taipei, Taiwan, R.O.C.). Human colorectal Colo205, pancreatic Mia-PaCa 2 tumor cells or MOLM-13, 32D-ITD/D835Y leukemia cells were inoculated subcutaneously at 1×10^6 cells each in the nude mice. All human cancer cells were detected as free of Mycoplasma spp before they were injected into animals. The tumor cells grow as xenograft tumors and the tumor size reached approximately 200-250 mm^3 in the nude mice ready for dose treatments. Test compounds were dissolved in 20% 2-hydroxypropy-β-cyclodextrin individually for oral gavage administrations to the nude mice. The tumor-bearing mice were treated with test compounds at various doses, 5 times a week for 2 weeks. Tumor sizes were measured by an electronic caliper and calculated with the formula: tumor size=length×width^2/2. Tumor size and animal body weight were measured twice a week before and after the tumor cell inoculation throughout the observation period. Uses of animals and experimental procedures thereof were approved by the Institutional Animal Care and Use Committee (IACUC) of the National Health Research Institutes.

[13] = tested on: xenografts colo205 nude mice; assay: In vivo toxicity study, colo205 model
Experimental: as §4, with “All human cancer cells were detected as free of Mycoplasma spp before they were injected into animals.” left out
Nine weeks old athymic nu/nu nude mice were administered orally at a once daily dose of 25, 50, 100, or 150 mg/kg on days 1-5 and 8-12.

[14] = 100 nM, read-out: Inhibition (% of control) at 100 nM
[15] = read-out: IC50 value (number in the bracket)

## CCc1cc(NC(=O)Nc2ccc(-c3cnc(Nc4cc(N5CCN(CCO)CC5)nc(C)n4)s3)cc2)no1 [Compound 1, 1-(5-Ethylisoxazol-3-yl)-3-(4-(2-((6-(4-(2-hydroxyethyl)piperazin-1-yl)-2-methylpyrimidin-4-yl)amino)thiazol-5-yl)phenyl)urea]
[1]
  inhibition at 0.1 µM: 81%
[2]
  inhibition at 0.1 µM: 65%
[3]; [14]
  inhibition at 0.1 µM: 66%
[3]; [15]
  IC50: 41 nM
[4]; [14]
  inhibition at 0.1 µM: 95%
[4]; [15]
  IC50: 9 nM
[5]; [14]
  inhibition at 0.1 µM: 82%
[5]; [15]
  IC50: 19 nM
[6]
  inhibition at 0.1 µM: 96%
[7]; [14]
  inhibition at 0.1 µM: 96%
[7]; [15]
  IC50: 6 nM
[8]; [14]
  inhibition at 0.1 µM: 95%
[8]; [15]
  IC50: 19 nM
[9]
  GI50: 3.2 nM
[9]; Mus musculus, 32D, 72 h
  GI50: < 6 nM
[10]
  GI50: 45 nM
[11]
  GI50: 8.5 nM
[12]
  Day 18 TGI: >80%
[13]; PO 50 mg/kg once daily, 5 on 2 off × 2
  Mortality (nude mice n = 6): 0/6 (50 mg/kg)
[13]; PO once daily, Compounds 1, 2, 3, 4, 6 at 50, 50, 100, 150 and 25 mg/kg
  Tolerability: well tolerated
